Data reported in the supplement of paper PMC10307832.

Columns and labels:
Experiment in all cases: relative viability (nuclei count vs DMSO), 5 days (fraction); higher = more cells survive
NCI-H2009 = system: NCI-H2009
How it was run: (§1)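 Relative viability equals treated-well nuclei counts divided by vehicle-well nuclei counts. Counts came from 4× images of lung cancer cell lines grown in 1536-well plates for 5 days after pin-tool dosing on the day after seeding. Dosing used one drug alone or a fixed anchor-drug dose plus five library-drug doses (not always all listed) in √10 steps, and values are medians of duplicate plates.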

LOU-NH91 = system: LOU-NH91
How it was run: as §1

NCI-H596 = system: NCI-H596
How it was run: as §1

LC-2-ad = system: LC-2-ad
How it was run: as §1

HCC-44 = system: HCC-44
How it was run: as §1

HCC-827 = system: HCC-827
How it was run: as §1

NCI-H661 = system: NCI-H661
How it was run: as §1

NCI-H2342 = system: NCI-H2342
How it was run: as §1

SK-LU-1 = system: SK-LU-1
How it was run: as §1

HARA = system: HARA
How it was run: as §1

BEN = system: BEN
How it was run: as §1

NCI-H1355 = system: NCI-H1355
How it was run: as §1

NCI-H2087 = system: NCI-H2087
How it was run: as §1

EKVX = system: EKVX
How it was run: as §1

SK-MES-1 = system: SK-MES-1
How it was run: as §1

NCI-H1792 = system: NCI-H1792
How it was run: as §1

NCI-H647 = system: NCI-H647
How it was run: as §1

NCI-H1437 = system: NCI-H1437
How it was run: as §1

NCI-H2170 = system: NCI-H2170
How it was run: as §1

NCI-H2228 = system: NCI-H2228
How it was run: as §1

NCI-H1734 = system: NCI-H1734
How it was run: as §1

NCI-H2405 = system: NCI-H2405
How it was run: as §1

NCI-H1395 = system: NCI-H1395
How it was run: as §1

Clc1ccc(Nc2nnc(Cc3ccncc3)c3ccccc23)cc1 [Vatalanib] + CCNC(=O)c1noc(-c2cc(C(C)C)c(O)cc2O)c1-c1ccc(CN2CCOCC2)cc1 [Luminespib] (partner 0.01 µM)
relative viability (NCI-H2009; first compound 0.04 µM): 1.11 | relative viability (NCI-H2009; first compound 0.1265 µM): 0.983 | relative viability (NCI-H2009; first compound 0.4 µM): 1.06 | relative viability (NCI-H2009; first compound 1.265 µM): 0.962 | relative viability (NCI-H2009; first compound 4 µM): 1.04 | relative viability (LOU-NH91; first compound 0.04 µM): 0.371 | relative viability (LOU-NH91; first compound 0.1265 µM): 0.331 | relative viability (LOU-NH91; first compound 1.265 µM): 0.368 | relative viability (LOU-NH91; first compound 4 µM): 0.315 | relative viability (NCI-H596; first compound 0.04 µM): 0.955 | relative viability (NCI-H596; first compound 0.1265 µM): 0.941 | relative viability (NCI-H596; first compound 0.4 µM): 0.953 | relative viability (NCI-H596; first compound 1.265 µM): 1.01 | relative viability (NCI-H596; first compound 4 µM): 1.19 | relative viability (LC-2-ad; first compound 0.04 µM): 1.1 | relative viability (LC-2-ad; first compound 0.1265 µM): 1.04 | relative viability (LC-2-ad; first compound 1.265 µM): 0.997 | relative viability (LC-2-ad; first compound 4 µM): 0.948 | relative viability (HCC-44; first compound 0.04 µM): 1.24 | relative viability (HCC-44; first compound 0.1265 µM): 1.01 | relative viability (HCC-44; first compound 0.4 µM): 0.953 | relative viability (HCC-44; first compound 1.265 µM): 0.927 | relative viability (HCC-44; first compound 4 µM): 1.05 | relative viability (HCC-827; first compound 0.04 µM): 0.53 | relative viability (HCC-827; first compound 0.1265 µM): 0.614 | relative viability (HCC-827; first compound 0.4 µM): 0.494 | relative viability (HCC-827; first compound 1.265 µM): 0.638 | relative viability (HCC-827; first compound 4 µM): 0.611 | relative viability (NCI-H661; first compound 0.04 µM): 0.887 | relative viability (NCI-H661; first compound 0.1265 µM): 0.91 | relative viability (NCI-H661; first compound 0.4 µM): 0.998 | relative viability (NCI-H661; first compound 1.265 µM): 0.89 | relative viability (NCI-H661; first compound 4 µM): 0.931 | relative viability (NCI-H2342; first compound 0.04 µM): 0.684 | relative viability (NCI-H2342; first compound 0.1265 µM): 0.684 | relative viability (NCI-H2342; first compound 0.4 µM): 0.822 | relative viability (NCI-H2342; first compound 1.265 µM): 0.869 | relative viability (NCI-H2342; first compound 4 µM): 0.658 | relative viability (SK-LU-1; first compound 0.04 µM): 0.21 | relative viability (SK-LU-1; first compound 0.1265 µM): 0.197 | relative viability (SK-LU-1; first compound 0.4 µM): 0.241 | relative viability (SK-LU-1; first compound 1.265 µM): 0.218 | relative viability (SK-LU-1; first compound 4 µM): 0.232 | relative viability (HARA; first compound 0.04 µM): 0.682 | relative viability (HARA; first compound 0.1265 µM): 0.617 | relative viability (HARA; first compound 0.4 µM): 0.669 | relative viability (HARA; first compound 1.265 µM): 0.738 | relative viability (HARA; first compound 4 µM): 0.591 | relative viability (BEN; first compound 0.04 µM): 0.218 | relative viability (BEN; first compound 0.1265 µM): 0.265 | relative viability (BEN; first compound 0.4 µM): 0.514 | relative viability (BEN; first compound 1.265 µM): 0.399 | relative viability (BEN; first compound 4 µM): 0.404 | relative viability (NCI-H1355; first compound 0.04 µM): 0.74 | relative viability (NCI-H1355; first compound 0.1265 µM): 0.675 | relative viability (NCI-H1355; first compound 0.4 µM): 0.748 | relative viability (NCI-H1355; first compound 1.265 µM): 0.656 | relative viability (NCI-H1355; first compound 4 µM): 0.738 | relative viability (NCI-H2087; first compound 0.04 µM): 0.152 | relative viability (NCI-H2087; first compound 0.1265 µM): 0.157 | relative viability (NCI-H2087; first compound 0.4 µM): 0.184 | relative viability (NCI-H2087; first compound 1.265 µM): 0.173 | relative viability (NCI-H2087; first compound 4 µM): 0.159 | relative viability (EKVX; first compound 0.04 µM): 0.904 | relative viability (EKVX; first compound 0.1265 µM): 0.805 | relative viability (EKVX; first compound 0.4 µM): 0.876 | relative viability (EKVX; first compound 4 µM): 0.852 | relative viability (SK-MES-1; first compound 0.04 µM): 0.745 | relative viability (SK-MES-1; first compound 0.1265 µM): 0.845 | relative viability (SK-MES-1; first compound 0.4 µM): 1.05 | relative viability (SK-MES-1; first compound 1.265 µM): 0.679 | relative viability (SK-MES-1; first compound 4 µM): 0.6 | relative viability (NCI-H1792; first compound 0.04 µM): 0.475 | relative viability (NCI-H1792; first compound 0.1265 µM): 0.492 | relative viability (NCI-H1792; first compound 0.4 µM): 0.4 | relative viability (NCI-H1792; first compound 1.265 µM): 0.564 | relative viability (NCI-H1792; first compound 4 µM): 0.387 | relative viability (NCI-H647; first compound 0.04 µM): 0.128 | relative viability (NCI-H647; first compound 0.1265 µM): 0.0977 | relative viability (NCI-H647; first compound 0.4 µM): 0.169 | relative viability (NCI-H647; first compound 1.265 µM): 0.187 | relative viability (NCI-H647; first compound 4 µM): 0.138 | relative viability (NCI-H1437; first compound 0.04 µM): 1.21 | relative viability (NCI-H1437; first compound 0.1265 µM): 1.19 | relative viability (NCI-H1437; first compound 0.4 µM): 1.13 | relative viability (NCI-H1437; first compound 1.265 µM): 1.12 | relative viability (NCI-H1437; first compound 4 µM): 1.14 | relative viability (NCI-H2170; first compound 0.04 µM): 0.79 | relative viability (NCI-H2170; first compound 0.1265 µM): 0.644 | relative viability (NCI-H2170; first compound 0.4 µM): 0.715 | relative viability (NCI-H2170; first compound 1.265 µM): 0.641 | relative viability (NCI-H2170; first compound 4 µM): 0.692 | relative viability (NCI-H2228; first compound 0.04 µM): 0.145 | relative viability (NCI-H2228; first compound 0.1265 µM): 0.102 | relative viability (NCI-H2228; first compound 0.4 µM): 0.163 | relative viability (NCI-H2228; first compound 1.265 µM): 0.115 | relative viability (NCI-H2228; first compound 4 µM): 0.157 | relative viability (NCI-H1734; first compound 0.04 µM): 0.224 | relative viability (NCI-H1734; first compound 0.1265 µM): 0.153 | relative viability (NCI-H1734; first compound 0.4 µM): 0.193 | relative viability (NCI-H1734; first compound 1.265 µM): 0.167 | relative viability (NCI-H1734; first compound 4 µM): 0.192 | relative viability (NCI-H2405; first compound 0.04 µM): 0.753 | relative viability (NCI-H2405; first compound 0.1265 µM): 0.775 | relative viability (NCI-H2405; first compound 1.265 µM): 0.594 | relative viability (NCI-H2405; first compound 4 µM): 0.717 | relative viability (NCI-H1395; first compound 0.04 µM): 0.668 | relative viability (NCI-H1395; first compound 0.1265 µM): 0.65 | relative viability (NCI-H1395; first compound 0.4 µM): 0.834 | relative viability (NCI-H1395; first compound 1.265 µM): 0.66 | relative viability (NCI-H1395; first compound 4 µM): 0.674
